Results on one molecule are retold here after patent US20160271268A1, “NUCLEIC ACID NANOSTRUCTURES FOR IN VIVO AGENT DELIVERY” (DANA-FARBER CANCER INSTITUTE, INC., priority 2013, published 2016).

Peptide text beside a SMILES is read from it.

This data set concerns dendritic cells. Nature of the data set: Oligolysine induced toxicity to dendritic cells. The class given is cell-based. To be noted: 1.5 μg/mL K20, different time intervals. Here is the method: FIGS. 15A and 15B show oligolysine induced toxicity to dendritic cells. FIG. 15A: Freshly harvested dendritic cells were incubated with 1.5 μg/mL K20 for different time intervals. […] FIG. 15B: Confocal image of dendritic cells incubated with oligolysine (K20) peptide-coated, cy5 labeled DNA nanostructure.

Take `NCCCC[C@H](NC(=O)[C@H](CCCCN)NC(=O)[C@H](CCCCN)NC(=O)[C@H](CCCCN)NC(=O)[C@H](CCCCN)NC(=O)[C@H](CCCCN)NC(=O)[C@H](CCCCN)NC(=O)[C@H](CCCCN)NC(=O)[C@H](CCCCN)NC(=O)[C@H](CCCCN)NC(=O)[C@H](CCCCN)NC(=O)[C@H](CCCCN)NC(=O)[C@H](CCCCN)NC(=O)[C@H](CCCCN)NC(=O)[C@H](CCCCN)NC(=O)[C@H](CCCCN)NC(=O)[C@H](CCCCN)NC(=O)[C@H](CCCCN)NC(=O)[C@H](CCCCN)NC(=O)[C@@H](N)CCCCN)C(=O)O` [K20] (H-KKKKKKKKKKKKKKKKKKKK-OH): the “appearance of dendritic cells under a microscope” value is “cells appeared healthy”.
